Test system: MRSA clinical isolates
Assay: Antibiotic susceptibility profile of MRSA clinical isolates (EUCAST breakpoints)
Type: cell-based, Staphylococcus aureus
From the text: Clinical MRSA isolates with multidrug resistance were obtained from the collection of the Research Institute of Antimicrobial Chemotherapy, Smolensk State Medical Academy.

Measured: Drug sensibility profile

CCCCCCCCCC(=O)N[C@@H](Cc1c[nH]c2ccccc12)C(=O)N[C@H](CC(N)=O)C(=O)N[C@@H](CC(=O)O)C(=O)N[C@@H]1C(=O)NCC(=O)N[C@@H](CCCN)C(=O)N[C@@H](CC(=O)O)C(=O)N[C@H](C)C(=O)N[C@@H](CC(=O)O)C(=O)NCC(=O)N[C@H](CO)C(=O)N[C@@H]([C@H](C)CC(=O)O)C(=O)N[C@@H](CC(=O)c2ccccc2N)C(=O)O[C@@H]1C [Daptomycine]
S: MRSA strain 1 | MRSA strain 2 | MRSA strain 3 | MRSA strain 4 | MRSA strain 5 | MRSA strain 6 | MRSA strain 7 | MRSA strain 8 | MRSA strain 9 | MRSA strain 10 | MRSA strain 12 | MRSA strain 13 | MRSA strain 14 | MRSA strain 15 | MRSA strain 16 | MRSA strain 17 | MRSA strain 18 | MRSA strain 21 | MRSA strain 23 | MRSA strain 24 | MRSA strain 30 | MRSA strain 31 | MRSA strain 34 | MRSA strain 35 | MRSA strain 40 | MRSA strain 43 | MRSA strain 46 | MRSA strain 48 | MRSA strain 49 | MRSA strain 50

CC[C@H]1OC(=O)[C@H](C)[C@@H](O[C@H]2C[C@@](C)(OC)[C@@H](O)[C@H](C)O2)[C@H](C)[C@@H](O[C@@H]2O[C@H](C)C[C@H](N(C)C)[C@H]2O)[C@](C)(O)C[C@@H](C)C(=O)[C@H](C)[C@@H](O)[C@]1(C)O [ERI, erythromycin]
S: MRSA strain 1 | MRSA strain 3 | MRSA strain 4 | MRSA strain 10 | MRSA strain 13 | MRSA strain 15 | MRSA strain 17 | MRSA strain 18 | MRSA strain 24 | MRSA strain 25 | MRSA strain 27 | MRSA strain 29 | MRSA strain 41 | MRSA strain 42 | MRSA strain 46 | MRSA strain 51
R: MRSA strain 2 | MRSA strain 5 | MRSA strain 6 | MRSA strain 7 | MRSA strain 8 | MRSA strain 9 | MRSA strain 12 | MRSA strain 14 | MRSA strain 16 | MRSA strain 21 | MRSA strain 23 | MRSA strain 28 | MRSA strain 31 | MRSA strain 40 | MRSA strain 45 | MRSA strain 48 | MRSA strain 50
I: MRSA strain 30 | MRSA strain 34 | MRSA strain 35 | MRSA strain 43 | MRSA strain 44 | MRSA strain 49
S S S S S S S: MRSA strain 26 | MRSA strain 36

CC(=O)O[C@H]1C[C@@]2(C)[C@@H](C[C@@H](O)[C@H]3[C@@]4(C)CC[C@@H](O)[C@@H](C)[C@@H]4CC[C@@]32C)/C1=C(\CCC=C(C)C)C(=O)O [Fusidic acid]
S: MRSA strain 1 | MRSA strain 2 | MRSA strain 3 | MRSA strain 4 | MRSA strain 5 | MRSA strain 6 | MRSA strain 7 | MRSA strain 8 | MRSA strain 9 | MRSA strain 10 | MRSA strain 12 | MRSA strain 13 | MRSA strain 14 | MRSA strain 15 | MRSA strain 16 | MRSA strain 18 | MRSA strain 21 | MRSA strain 23 | MRSA strain 24 | MRSA strain 25 | MRSA strain 26 | MRSA strain 27 | MRSA strain 28 | MRSA strain 29 | MRSA strain 30 | MRSA strain 31 | MRSA strain 34 | MRSA strain 35 | MRSA strain 36 | MRSA strain 40 | MRSA strain 41 | MRSA strain 42 | MRSA strain 43 | MRSA strain 44 | MRSA strain 45 | MRSA strain 46 | MRSA strain 48 | MRSA strain 49 | MRSA strain 50 | MRSA strain 51
R: MRSA strain 17

CNC(C)C1CCC(N)C(OC2C(N)CC(N)C(OC3OCC(C)(O)C(NC)C3O)C2O)O1 (stereo not shown) [GEN, gentamicin]
S: MRSA strain 1 | MRSA strain 6 | MRSA strain 10 | MRSA strain 12 | MRSA strain 15 | MRSA strain 21 | MRSA strain 29 | MRSA strain 30 | MRSA strain 46 | MRSA strain 49
S S S S S S S: MRSA strain 26 | MRSA strain 36
R: MRSA strain 2 | MRSA strain 3 | MRSA strain 4 | MRSA strain 5 | MRSA strain 7 | MRSA strain 8 | MRSA strain 9 | MRSA strain 13 | MRSA strain 14 | MRSA strain 16 | MRSA strain 17 | MRSA strain 18 | MRSA strain 23 | MRSA strain 24 | MRSA strain 25 | MRSA strain 27 | MRSA strain 28 | MRSA strain 31 | MRSA strain 34 | MRSA strain 35 | MRSA strain 40 | MRSA strain 41 | MRSA strain 42 | MRSA strain 43 | MRSA strain 44 | MRSA strain 45 | MRSA strain 48 | MRSA strain 50 | MRSA strain 51

C/C(=C\C(=O)OCCCCCCCCC(=O)O)C[C@@H]1OC[C@H](C[C@@H]2O[C@H]2[C@@H](C)[C@H](C)O)[C@@H](O)[C@H]1O [Mupirocin]
I: MRSA strain 50
S: MRSA strain 1 | MRSA strain 2 | MRSA strain 3 | MRSA strain 4 | MRSA strain 5 | MRSA strain 6 | MRSA strain 7 | MRSA strain 8 | MRSA strain 9 | MRSA strain 10 | MRSA strain 12 | MRSA strain 13 | MRSA strain 14 | MRSA strain 15 | MRSA strain 16 | MRSA strain 17 | MRSA strain 18 | MRSA strain 21 | MRSA strain 23 | MRSA strain 24 | MRSA strain 25 | MRSA strain 26 | MRSA strain 27 | MRSA strain 28 | MRSA strain 29 | MRSA strain 30 | MRSA strain 31 | MRSA strain 34 | MRSA strain 35 | MRSA strain 36 | MRSA strain 40 | MRSA strain 41 | MRSA strain 42 | MRSA strain 43 | MRSA strain 44 | MRSA strain 45 | MRSA strain 46 | MRSA strain 48 | MRSA strain 49 | MRSA strain 51

Cc1cc(NS(=O)(=O)c2ccc(N)cc2)no1 [SUL, sulfamethoxazole]
S S S S S S S: MRSA strain 26 | MRSA strain 36
R: MRSA strain 1
I: MRSA strain 17
S: MRSA strain 2 | MRSA strain 3 | MRSA strain 4 | MRSA strain 5 | MRSA strain 6 | MRSA strain 7 | MRSA strain 8 | MRSA strain 9 | MRSA strain 10 | MRSA strain 12 | MRSA strain 13 | MRSA strain 14 | MRSA strain 15 | MRSA strain 16 | MRSA strain 18 | MRSA strain 21 | MRSA strain 23 | MRSA strain 24 | MRSA strain 25 | MRSA strain 27 | MRSA strain 28 | MRSA strain 29 | MRSA strain 30 | MRSA strain 31 | MRSA strain 34 | MRSA strain 35 | MRSA strain 40 | MRSA strain 41 | MRSA strain 42 | MRSA strain 43 | MRSA strain 44 | MRSA strain 45 | MRSA strain 46 | MRSA strain 48 | MRSA strain 49 | MRSA strain 50 | MRSA strain 51

Source: PMC11899342, “Novel Triazeneindole Antibiotics: Synthesis and Hit-to-Lead Optimization” (International Journal of Molecular Sciences, 2025)
